Consider eight compounds from patent US20250051375A1, “ANTI-HIV COMPOUNDS” (Gilead Sciences, Inc., priority 2023, published 2025).

One series in a line: PBS Stability Assay. The note with it: buffer, pH 7.4, 2 μM, phosphate buffered saline pH 7.4; read-out: PBS T½. The series is classed as physicochemical. The method, then: Reagents. Stock solutions of test compounds in dimethyl sulfoxide (DMSO) having a final concentration of 10 mM were prepared and used in all experiments. Sekisui XenoTech (Kansas City, KS) provided pooled intestinal S9 fractions. All other chemicals were purchased from Sigma-Aldrich (St. Louis, MO) or VWR (West Chester, PA). Internal Standard/Quench (IS/Q) used to stop reactions was 100 nM labetalol in (by volume) formic acid (1%) and acetonitrile (99%).
PBS Stability Assay: For each test compound, an aliquot of the test compound was added to phosphate buffered saline (137 mM NaCl, 2.7 mM KCl, 10 mM phosphate buffer), pH 7.4. The incubation was initiated by the addition of the test compound to PBS to a final concentration of 2 μM. At 0, 10, 20, 30, 60 and 120 min, 25 μL aliquots of the incubation mixture were transferred to plates containing 225 μl of IS/Q solution. After quenching, the plates were centrifuged at 3000×g for 30 minutes. 150 μL aliquots of each supernatant were transferred to new plates and 150 μL water was added. Aliquots (10 μL) of the prepared samples were analyzed on a Thermo Q-Exactive mass spectrometer as described below.
Liquid Chromatography-Mass Spectrometry: Quantification of test compounds and control substrate was performed by analyte/internal standard peak area ratio (PAR) values measured on a Thermo Q-Exactive mass spectrometer coupled to a Dionex UltiMate 3000 HPLC with a Leap Technologies HTC PAL autosampler. The column used for analysis was a Thermo Scientific Hypersil GOLD (1.9 μm particle size, 50×2.1 mm). Mobile phase A consisted of 0.1% (v/v) formic acid in water. Mobile phase B consisted of 0.1% (v/v) formic acid in acetonitrile. Elution of analytes was achieved by a series of linear gradients varying the proportions of A and B. The mass spectrometer was calibrated on a weekly basis and mass tolerance of 5 ppm was used.
Data Analysis. Metabolic stabilities were determined by measuring the rates of disappearance of test compound and positive control substrate. Data (% of substrate remaining) were plotted on a semi-log scale and fitted using an exponential decline model:
where • Ct% of substrate remaining at time=t • C0% of substrate remaining at time=0 • t time • T½ half-life • The Half-life (T½) is determined by the following equation:
[formula] • Assuming a first-order reaction, the slope (k) is extrapolated from the aforementioned plotted data.

A further series in a line: Solubility in FaSSIF. The following applies: for solubility / solubility at 2 h: 23 °C, pH 6.5, fassif, thermodynamic from solid; for solubility: FaSSIF (pH 6.5) solubility. As for the experimental part: Buffer Preparation: Fasted State Simulated Intestinal Fluid (FaSSIF): Simulated Intestinal Fluid (SIF) powder containing a complex of Taurocholate and Lecithin (4:1 molar ratio) was obtained from Biorelevant. 0.056 g of SIF powder was added to 25 mL of buffer, adjusted to pH 6.5, containing 0.011 g of NaOH (pellets), 0.099 g of NaH2PO4 (monohydrate), and 0.155 g of NaCl. The buffer was prepared with HPLC H2O. The SIE powder was stirred until completely dissolved and allowed to stand for 2 hours.
Test Compounds: Each test compound was placed in a vial containing approximately 7 mg of material. Aliquots were weighed out for each assay media at each time point to be analyzed. The buffer was added to each vial such that the final dose concentration of 5 mg/mL was achieved. Samples were then vortexed for 5-10 seconds.
The plate was sealed with a pierceable heat seal and analyzed by HPLC-UV.

Series [1] addresses bovine intestinal alkaline phosphatase (Bos taurus (Bovine), UniProt P19111). Briefly: BiALP: conversion by bovine intestinal alkaline phosphatase. The series is classed as in vitro ADME. The note with it: 2 μM substrate, 100 ng/mL iALP, Tris pH 7.8, 37° C., 60 minutes; for [Intermediate A] or [Amprenavir]: parent formed. As for the experimental part:
Fosamprenavir and its parent compound (amprenavir) were purchased from Millipore Sigma (St. Louis, MO). Test compounds, Intermediate A, fosamprenavir, and amprenavir were each separately dissolved in dimethyl sulfoxide (DMSO) at a concentration of 10 mM to form stock solutions.
All other chemicals were purchased from Millipore Sigma (St. Louis, MO) and Thermo Fisher Scientific (Waltham, MA). […] Internal Standard/Quench (IS/Q) was 100 nM labetalol in 99:1 (v/v) acetonitrile/formic acid.
Incubations were performed with Tris buffer alone (0.1 M Tris-HCl pH 7.8 containing 1 mM MgCl2 and 1 mM ZnCl2) or the same Tris buffer further containing 100 ng/mL iALP (0.01 units/mL). Triplicate 100 μL aliquots of Tris buffer±iALP were warmed to 37° C. and the reactions were initiated by the addition of the test compound or fosamprenavir to obtain final substrate concentrations of 2 μM. Incubations were then continued at 37° C. At 60 minutes, reactions were terminated by the addition of 200 μl of IS/Q and mixed by pipette. […] Aliquots (150 μL) of the supernatants were transferred to fresh plates containing 150 μL of water. Aliquots (15 μL) of the diluted supernatants were analyzed by mass spectrometry as described below.
Quantification of the test compounds and fosamprenavir was performed by analyte/internal standard peak area ratios (PARs) with comparison to 2 μM Intermediate A and amprenavir, respectively. The LC instrumentation consisted of a Thermo Scientific Vanquish pump and a Thermo Hypersil Gold column (1.9 μm particle size, 2.1×50 mm). […] The MS instrument was a Thermo Q Exactive™ Plus operating in positive ionization mode with mass tolerance of 5 ppm and calibrated on a twice weekly basis.

The subject of the next series is HIV-1 IIIB strain. Kind of series: MT-4 HIV Wild Type Virus Infection Assay (IIIB Virus). Format: cell-based. The following applies: Human immunodeficiency virus 1, IIIB, MT4, 120 h, MT-4 cells acutely infected with HIV-1 IIIB, 5 day incubation, Cell-titer glo. As for the experimental part:
Test compounds and controls were serially diluted and spotted in replicate into 384 well black assay plates via acoustic transfer (Echo). MT-4 cells were grown in batch, centrifuged and resuspended into fresh CCM media (RPMI w/10% FBS, 1% PS) at 2×10^6 cells/ml. MT-4 cells were acutely infected with HIV-1 IIIB strain. The size of each infection mix was scaled by the number of sample plates to be tested. Each infection mix was transferred into 5 mL closed tubes and nutated rapidly on a shaker at 37° C. incubator for 1 hour. The infection mixes were then diluted 25× in fresh cell culture media and then added to assay plates at 40 μL per well using a ViaFlo 384 pipettor. After 5 day incubation at 37° C. in a CO2 incubator, assay plates were processed with Cell-titer glo reagent using a ViaFlo 384 with an addition/mixing program. Plates were read immediately on Envision reader. Assay signals were plotted and dose response curves generated to determine individual compound EC50s.

Setting [2] is: FaSSIF pH 6.5, dose 5 mg/mL, 2-hour incubation, ambient temperature.

In brackets after ≈: the same amount, converted by molar mass. Read-outs that look alike come from different tables or passages of the source.

Sequence of bovine intestinal alkaline phosphatase (P19111 20-506): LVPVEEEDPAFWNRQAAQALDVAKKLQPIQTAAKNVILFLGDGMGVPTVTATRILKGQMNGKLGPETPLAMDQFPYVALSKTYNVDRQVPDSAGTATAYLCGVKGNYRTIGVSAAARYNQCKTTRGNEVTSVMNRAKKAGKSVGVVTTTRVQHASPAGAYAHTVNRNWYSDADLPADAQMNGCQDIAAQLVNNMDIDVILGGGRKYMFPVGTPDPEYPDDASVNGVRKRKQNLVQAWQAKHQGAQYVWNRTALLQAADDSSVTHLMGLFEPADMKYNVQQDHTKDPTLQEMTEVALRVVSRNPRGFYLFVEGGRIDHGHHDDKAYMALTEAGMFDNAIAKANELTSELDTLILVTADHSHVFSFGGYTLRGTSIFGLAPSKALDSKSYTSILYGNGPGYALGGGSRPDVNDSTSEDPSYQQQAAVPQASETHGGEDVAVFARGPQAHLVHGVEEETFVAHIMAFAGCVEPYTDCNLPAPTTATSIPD

For `COC(=O)N[C@H](C(=O)N[C@@H](Cc1ccc(C#Cc2cnc(N3CC4CCC(C3)N4C3COC3)nc2)cc1)[C@H](CN(Cc1c(F)cc(-c2ccn(C(F)F)n2)cc1F)NC(=O)[C@@H](NC(=O)OC)C(C)(C)C(F)(F)F)OC(=O)OC(C)OC(=O)CC(C)(C)c1c(CC(=O)O)cc(C)cc1OP(=O)(O)O)C(C)(C)C(F)(F)F` (stereo in doubt) [Example 64], the half-life at 2 μM in “PBS Stability Assay” was determined as 8.43 h. The “FaSSIF (pH 6.5) solubility” value in the series “Solubility in FaSSIF” (setting [2]) is reported as 165 μg/mL. Besides, in series [1], the “[Compound]” value came out at 1271 nM. Further, the EC50 in the series on HIV-1 IIIB strain (read-out: EC50) was found to be 11.1 nM.

As to `COC(=O)N[C@H](C(=O)N[C@@H](Cc1ccc(C#Cc2cnc(N3CC4CCC(C3)N4C3COC3)nc2)cc1)[C@H](CN(Cc1c(F)cc(-c2ccn(C(F)F)n2)cc1F)NC(=O)[C@@H](NC(=O)OC)C(C)(C)C(F)(F)F)OC(=O)OCOC(=O)CC(C)(C)c1c(OP(=O)(O)O)cc(C(=O)O)cc1C(=O)O)C(C)(C)C(F)(F)F` [Example 1], the half-life at 2 μM in “PBS Stability Assay” worked out at 8.74 h. Moreover, the concentration in solution in “Solubility in FaSSIF” (setting [2]) (solubility) was 5060 µg/mL (≈ 3220 µM). In addition, the “[Compound]” value in series [1] was 1318.1 nM. The EC50 with HIV-1 IIIB strain (read-out: EC50) was found to be 7.6 nM.

`COC(=O)N[C@H](C(=O)N[C@@H](Cc1ccc(C#Cc2cnc(N3CC4CCC(C3)N4C3COC3)nc2)cc1)[C@H](CN(Cc1c(F)cc(-c2ccn(C(F)F)n2)cc1F)NC(=O)[C@@H](NC(=O)OC)C(C)(C)C(F)(F)F)OC(=O)OCOC(=O)CC(C)(C)c1c(C)cc(C(=O)O)cc1OP(=O)(O)O)C(C)(C)C(F)(F)F` [Example 2]: in “PBS Stability Assay”, the half-life at 2 μM was found to be 6.52 h. The solubility in “Solubility in FaSSIF” (setting [2]) came to 680 µg/mL (≈ 440 µM). Besides, in series [1], the “[Compound]” value worked out at 1359.6 nM. For the same compound, the concentration for a half-maximal effect (EC50) with HIV-1 IIIB strain (read-out: EC50) stood at 2.1 nM.

Take `COC(=O)N[C@H](C(=O)N[C@@H](Cc1ccc(C#Cc2cnc(N3CC4CCC(C3)N4C3COC3)nc2)cc1)[C@H](CN(Cc1c(F)cc(-c2ccn(C(F)F)n2)cc1F)NC(=O)[C@@H](NC(=O)OC)C(C)(C)C(F)(F)F)OC(=O)CC(C)(C)c1c(CC(=O)N(CCCC(=O)O)CC(=O)O)cc(C)cc1OP(=O)(O)O)C(C)(C)C(F)(F)F` [Example 8]: in “PBS Stability Assay”, the half-life at 2 μM stood at 7.11 h. In addition, the solubility at 2 h in the series “Solubility in FaSSIF” turned out to be 3260 µg/mL (≈ 2000 µM). For the same compound, in series [1], the “[Compound]” value was 1709.4 nM, the “biALP Intermediate A or [Amprenavir] (% of total)” value is 8.4 % of total and the “[Intermediate A] or [Amprenavir]” value came out at 157.3 nM. In addition, in the series with HIV-1 IIIB strain, the concentration giving a half-maximal response (EC50) worked out at 230 nM.

Turning to `COC(=O)N[C@H](C(=O)N[C@@H](Cc1ccc(C#Cc2cnc(N3CC4CCC(C3)N4C3COC3)nc2)cc1)[C@H](CN(Cc1c(F)cc(-c2ccn(C(F)F)n2)cc1F)NC(=O)[C@@H](NC(=O)OC)C(C)(C)C(F)(F)F)OC(=O)CC(C)(C)c1c(CC(=O)Nc2ccccn2)cc(C)cc1OP(=O)(O)O)C(C)(C)C(F)(F)F` [Example 13, (5S,10S,11S,14S)-8-(4-(1-(difluoromethyl)-1H-pyrazol-3-yl)-2,6-difluorobenzyl)-11-(4-((2-(8-(oxetan-3-yl)-3,8-diazabicyclo[3.2.1]octan-3-yl)pyrimidin-5-yl)ethynyl)benzyl)-3,6,13,16-tetraoxo-5,14-bis(1,1,1-trifluoro-2-methylpropan-2-yl)-2,17-dioxa-4,7,8,12,15-pentaazaoctadecan-10-yl 3-methyl-3-(4-methyl-2-(2-oxo-2-(pyridin-2-ylamino)ethyl)-6-(phosphonooxy)phenyl)butanoate], the half-life at 2 μM in the series “PBS Stability Assay” turned out to be 1.98 h. Also, in series [1], the “[Compound]” value was 1660.2 nM, the “biALP Intermediate A or [Amprenavir] (% of total)” value was 0.1 % of total and the “[Intermediate A] or [Amprenavir]” value worked out at 1.8 nM. Further, the midpoint of the response with HIV-1 IIIB strain, the EC50, lay at 223 nM.

`COC(=O)N[C@H](C(=O)N[C@@H](Cc1ccc(C#Cc2cnc(N3CC4CCC(C3)N4C3COC3)nc2)cc1)[C@H](CN(Cc1c(F)cc(-c2ccn(C(F)F)n2)cc1F)NC(=O)[C@@H](NC(=O)OC)C(C)(C)C(F)(F)F)OC(=O)CC(C)(C)c1c(CC(=O)N[C@@H](CC(=O)O)C(=O)O)cc(C)cc1OP(=O)(O)O)C(C)(C)C(F)(F)F` [Example 23]: the half-life at 2 μM in “PBS Stability Assay” was determined as 11.7 h. In “Solubility in FaSSIF”, the concentration in solution (solubility at 2 h) was 4540 µg/mL (≈ 2840 µM). The same compound came in with a 50% effective concentration (EC50) with HIV-1 IIIB strain of 204 nM.

For `COC(=O)N[C@H](C(=O)N[C@@H](Cc1ccc(C#Cc2cnc(N3CC4CCC(C3)N4C3COC3)nc2)cc1)[C@H](CN(Cc1c(F)cc(-c2ccn(C(F)F)n2)cc1F)NC(=O)[C@@H](NC(=O)OC)C(C)(C)C(F)(F)F)OC(=O)CC(C)(C)c1c(CC(=O)NC(CCCC(=O)O)C(=O)O)cc(C)cc1OP(=O)(O)O)C(C)(C)C(F)(F)F` (some centres unmarked) [Example 41], the half-life at 2 μM in the series “PBS Stability Assay” worked out at 5.02 h. Besides, in series [1], the “[Compound]” value is 2074.8 nM. Further, the half-maximal effective concentration (EC50) in the series on HIV-1 IIIB strain is 43.5 nM.

As to `COC(=O)N[C@H](C(=O)N[C@@H](Cc1ccc(C#Cc2cnc(N3CC4CCC(C3)N4C3COC3)nc2)cc1)[C@H](CN(Cc1c(F)cc(-c2ccn(C(F)F)n2)cc1F)NC(=O)[C@@H](NC(=O)OC)C(C)(C)C(F)(F)F)OC(=O)OCOC(=O)CC(C)(C)c1c(CC(=O)N2CCN(S(C)(=O)=O)CC2)cc(C)cc1OP(=O)(O)O)C(C)(C)C(F)(F)F` [Example 84], in the series “PBS Stability Assay”, the half-life at 2 μM stood at 3.02 h. Also, the “[Compound]” value in series [1] is given as 1594.8 nM. The compound also had a 50% effective concentration (EC50) with HIV-1 IIIB strain of 3.9 nM.
